Legend:
[1] = Liver microsomal stability, human; format: in vitro ADME; conditions: human liver microsomes; 30 min; percent of parent remaining; read-out: Liver Microsomal stability (%), % of remaining after 30 min, Human
A2058 cells = assay: Chemotaxis Assay (LPA-induced migration of A2058 cells); format: cell-based; conditions: Homo sapiens, 4 to 8 hours, crystal violet 590 nm
Outline: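 A2058 cells, starved 24 hr and treated with test compound or vehicle, were placed on a fibronectin-coated membrane ([…]) above […] in DMEM. After 4–8 h migration, migrated cells were crystal violet stained and read at 590 nm. Values are relative percentage of control.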

hLPAR1 = molecular target: T1, hLPAR1 (Homo sapiens, UniProt Q92633); assay: Ca2+ Flux Assay (B103 cells stably expressing hLPAR1); format: cell-based; conditions: LPA-induced calcium release, Fura-2 AM, compound 20 min at RT
T1 construct: expressed in transfected cells
T1 sequence (Q92633 whole entry): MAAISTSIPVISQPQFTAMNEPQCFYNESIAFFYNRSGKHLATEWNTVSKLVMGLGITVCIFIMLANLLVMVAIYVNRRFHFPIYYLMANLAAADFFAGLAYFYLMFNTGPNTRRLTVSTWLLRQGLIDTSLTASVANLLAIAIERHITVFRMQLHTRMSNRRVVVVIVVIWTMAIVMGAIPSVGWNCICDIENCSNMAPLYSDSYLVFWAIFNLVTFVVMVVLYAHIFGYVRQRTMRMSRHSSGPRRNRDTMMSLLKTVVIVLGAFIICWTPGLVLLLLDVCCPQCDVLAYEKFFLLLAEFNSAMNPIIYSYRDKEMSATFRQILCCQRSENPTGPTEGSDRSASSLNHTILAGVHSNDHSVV
Outline: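 Fura-2 AM (5 μM) loaded 40 min at RT in HBSS/20 mM HEPES/probenecid/0.3% fatty-acid-free BSA after 2 h serum starvation. Compounds preincubated 20 min at RT, then LPA […] added. Intracellular calcium mobilization read as fluorescence intensity.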

BSEP = molecular target: T2, BSEP (Homo sapiens, UniProt O95342); assay: Bile Salt Export Pump (BSEP) Assay, Sf9 insect cell vesicles expressing BSEP; format: in vitro ADME; conditions: 10 μM test compound, probe substrate 1 μM [3H]-taurocholic acid, 15 min incubation
T2 construct: ATP-dependent uptake of radiolabelled probe substrate
T2 sequence (O95342 whole entry): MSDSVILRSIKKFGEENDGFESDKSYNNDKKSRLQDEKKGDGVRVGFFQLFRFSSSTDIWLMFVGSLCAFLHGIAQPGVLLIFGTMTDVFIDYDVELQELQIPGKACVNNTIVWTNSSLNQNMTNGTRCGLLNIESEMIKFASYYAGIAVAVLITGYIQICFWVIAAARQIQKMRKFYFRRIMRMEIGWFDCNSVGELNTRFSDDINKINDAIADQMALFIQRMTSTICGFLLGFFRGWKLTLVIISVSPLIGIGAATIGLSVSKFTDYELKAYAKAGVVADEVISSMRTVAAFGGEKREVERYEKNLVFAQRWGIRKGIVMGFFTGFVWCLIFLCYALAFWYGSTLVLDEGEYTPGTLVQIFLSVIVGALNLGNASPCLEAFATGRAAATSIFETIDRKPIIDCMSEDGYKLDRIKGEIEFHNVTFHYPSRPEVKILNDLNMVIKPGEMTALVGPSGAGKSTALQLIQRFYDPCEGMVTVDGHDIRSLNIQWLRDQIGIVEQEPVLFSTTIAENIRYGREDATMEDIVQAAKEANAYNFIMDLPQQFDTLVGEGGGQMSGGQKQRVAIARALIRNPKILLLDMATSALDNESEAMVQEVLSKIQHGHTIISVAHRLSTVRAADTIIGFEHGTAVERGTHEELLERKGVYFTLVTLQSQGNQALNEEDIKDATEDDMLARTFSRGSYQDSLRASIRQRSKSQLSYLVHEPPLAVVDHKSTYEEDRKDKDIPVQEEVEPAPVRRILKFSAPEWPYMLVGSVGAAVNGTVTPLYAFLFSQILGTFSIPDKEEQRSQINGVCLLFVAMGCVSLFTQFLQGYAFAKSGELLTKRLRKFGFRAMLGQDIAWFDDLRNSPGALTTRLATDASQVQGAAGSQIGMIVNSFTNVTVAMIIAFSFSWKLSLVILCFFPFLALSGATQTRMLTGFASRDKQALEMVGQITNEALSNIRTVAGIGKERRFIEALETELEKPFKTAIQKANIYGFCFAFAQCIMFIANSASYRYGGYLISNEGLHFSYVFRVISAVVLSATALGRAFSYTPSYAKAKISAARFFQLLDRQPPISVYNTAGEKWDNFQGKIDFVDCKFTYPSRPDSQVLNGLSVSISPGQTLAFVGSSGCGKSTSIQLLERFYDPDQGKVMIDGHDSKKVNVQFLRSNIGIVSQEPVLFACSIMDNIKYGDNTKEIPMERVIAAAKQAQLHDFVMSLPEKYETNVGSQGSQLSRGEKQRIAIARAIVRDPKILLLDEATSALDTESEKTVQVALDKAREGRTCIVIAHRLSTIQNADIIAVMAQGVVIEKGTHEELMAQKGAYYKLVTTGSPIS
Procedure: • 1. A stock solution was prepared with the test article (Sponsor compound) in DMSO. • 2. All final assay solutions of probe substrate, reference inhibitor or test article contain 0.5% (v/v) DMSO (vehicle control). • 3. Test article concentrations in transport study were specified in the Summary Table of Experimental Conditions of this protocol.
• 1. Bovine Serum Albumin (BSA) • 2. Dimethyl sulfoxide (DMSO) • 3. BSEP Assay Uptake Buffer (10 mM HEPES-Tris pH 7.4, 0.1 M KNO3, 12.5 mM Mg(NO3)2, 50 mM sucrose) • 4. BSEP Wash Buffer (10 mM Tris-HCl pH 7.4, 0.1 M KNO3, 50 mM sucrose) • 5. BSEP Blocking Buffer (BSEP Wash Buffer+0.5 mg/mL BSA) • 6. 25 mM Mg-ATP solution • 7. 25 mM AMP solution • 8. Corning Costar 96-well flat-bottom, untreated, white Assay Plate (Corning Cat. No. 3912) • 9. Millipore MultiscreenHTs Filtration Plate, glass fiber FB—1.0/0.65 μm (Cat. No. MSFBN6B10 or glass fiber FC—1.2/0.65 μm (Cat. No. MSFCN6B10) • 10. Millipore MultiscreenHTS Vacuum Manifold (Cat. No. MSVMHTS00) • 11. Probe substrates listed in Table 1 • 12. Reference inhibitors listed in Table 1 • 13. Test articles
• 1. Test system: • a. 96-well flat bottom plate containing a suspension of vesicles and a corresponding 96-well glass fiber filtration plate. • b. Transport experiments were conducted in the Assay Uptake Buffer. • c. Transport experiment was initiated with the addition of Mg-ATP or AMP to appropriate wells. • d. Each condition was run in triplicate wells. • 2. Prepared the 96-well flat-bottom assay plate. • a. Incubated the assay plate with the Blocking Buffer for 60 min at 37 °C with orbital shaking at approximately 90 rpm. (NOTE: This is done to prevent non-specific binding of vesicles to polystyrene assay plate). • b. After 60 min, completely removed the Blocking Buffer from the assay plate. • c. The Assay Uptake Buffer solutions were added to the assay plate wells as follows: • i. For probe substrate transport assays, the Assay Uptake Buffer contained vesicles and the probe substrate at the specified concentration. • ii. For the reference inhibition assay, the Assay Uptake Buffer contained vesicles, the reference inhibitor and the probe substrate at the specified concentration in Table 1. • iii. For the test article assays, Assay Uptake Buffer contained vesicles, the test article and the probe substrate at the specified concentration in Table 1. • 3. Incubate at 37 °C with orbital shaking at approximately 90 rpm for the time period specified in Table 1 of this protocol. • 4. Using the 25 mM Mg-ATP or AMP stocks, Mg-ATP or AMP was added to test wells of flat bottom assay plate to a final concentration of 5 mM. • 5. Incubated at 37 °C with orbital shaking at approximately 90 rpm for the incubation time specified in Table 1 of this protocol. • 6. Prepared the 96-well glass fiber filtration plate: • a. Incubated the filtration plate with the Blocking Buffer for 2 min at room temperature with under no vacuum. • b. Turned on vacuum and allowed Blocking Buffer to filter through plate. • c. With vacuum on, filter plate was washed with ice cold Wash Buffer. • 7. At the end of the specified incubation time indicated in […] of this protocol, vesicle transport was quenched by adding ice cold Wash Buffer to samples in 96-well assay plate. • 8. Mixed assay samples (now diluted in Wash Buffer) with pipette and transfered 175 μL into the 96-well glass fiber filtration plate to separate vesicles from buffer by applying vacuum. • 9. Washed filter plate wells with ice cold Wash Buffer. • 10. Allowed filter plate to dry under vacuum. • 11. Transfered filters to scintillation sample plate and added 700 μL of scintillation fluid to the above samples. • 12. Counted the above samples on a 1450 Microbeta (Perkin-Elmer).
• 1. The amount of substrate was quantified with radiometric detection on a 1450 Microbeta (Perkin-Elmer). • 2. For transport study samples run in triplicate, the mean and standard deviation of the replicates were reported. • 3. […]

[2] = Liver microsomal stability, rat; format: in vitro ADME; conditions: rat liver microsomes; 30 min; percent of parent remaining; read-out: Liver Microsomal stability (%), % of remaining after 30 min, Rat

SMILES	remaining at 0.5 h [1]	IC50 (A2058 cells)	IC50 (hLPAR1)	remaining at 0.5 h [2]	inhibition at 0.25 h, 10 µM (BSEP)
Cn1nnc(C2CCN(c3ccc(C4(C(=O)O)CC4)cc3)CC2)c1Nc1cccc(-c2ccccc2)n1 [Compound 6]	> 75%	500 to 5000 nM	10 to 200 nM	> 75%	–
Cc1noc(N2CCC(c3ccc(C4(C(=O)O)CC4)cc3)CC2)c1NC(=O)O[C@H](C)c1ccccc1 [Compound 8, (R)-1-(4-(1-(3-methyl-4-(((1-phenylethoxy)carbonyl)amino)isoxazol-5-yl)piperidin-4-yl)phenyl)cyclopropane-1-carboxylic acid]	50 to 75%	100 to 500 nM	< 10 nM	50 to 75%	50 to 75%
CCCN(C)C(=O)OCc1c(C)noc1C1CCN(c2ccc(C3(C(=O)NS(=O)(=O)C(F)(F)F)CC3)cc2)CC1 [Compound 13]	≤ 25%	≥ 5000 nM	≥ 3000 nM	50 to 75%	–
Cc1noc(C2CCN(c3ccc(C4(C(=O)O)CC4)cc3)CC2)c1N[C@H](C)CCc1ccccc1 [Compound 22]	50 to 75%	100 to 500 nM	10 to 200 nM	50 to 75%	–
Cc1noc(C2CN(c3ccc(C4(C(=O)O)CC4)cc3)C2)c1NC(=O)O[C@H](C)c1ccccc1 [Compound 23, (R)-1-(4-(3-(3-methyl-4-(((1-phenylethoxy)carbonyl)amino)isoxazol-5-yl)azetidin-1-yl)phenyl)cyclopropane-1-carboxylic acid]	> 75%	500 to 5000 nM	10 to 200 nM	> 75%	25 to 50%
Cc1noc(C2CCN(c3ccc(C4(C(=O)O)CC4)cc3)CC2)c1CNC(=O)O[C@@H](C)c1ccccc1 [Compound 25]	> 75%	≥ 5000 nM	10 to 200 nM	> 75%	–
Cc1nc(C2(C(=O)O)CC2)ccc1N1CCC(c2onc(C)c2NC(=O)O[C@H](C)c2ccccc2)CC1 [Compound 62]	> 75%	100 to 500 nM	10 to 200 nM	> 75%	25 to 50%
Cc1noc(C2CCN(c3ccc(C4(C(=O)O)CC4)nc3)CC2)c1NC(=O)O[C@H](C)c1ccccc1 [Compound 90]	–	100 to 500 nM	10 to 200 nM	–	25 to 50%
C[C@@H](OC(=O)Nc1cc(Cl)sc1C1CCN(c2ccc(C3(C(=O)O)CC3)cc2)CC1)c1ccccc1 [Compound 92, 1-(4-{4-[5-chloro-3-({[(1R)-1-phenylethoxy]carbonyl}amino)thiophen-2-yl]piperidin-1-yl}phenyl)cyclopropane-1-carboxylic acid]	–	< 100 nM	10 to 200 nM	–	75 to 100%
C[C@@H](OC(=O)Nc1ccsc1C1CCN(c2ccc(C3(C(=O)O)CC3)cc2)CC1)c1ccccc1 [Compound 93]	–	< 100 nM	10 to 200 nM	–	50 to 75%
Cc1nsc(C2CCN(c3ccc(C4(C(=O)O)CC4)cc3)CC2)c1NC(=O)O[C@H](C)c1ccccc1 [Compound 95]	–	100 to 500 nM	10 to 200 nM	–	25 to 50%

More lines, main results first:

remaining at 0.5 h [1]	IC50 (A2058 cells)	IC50 (hLPAR1)	remaining at 0.5 h [2]	SMILES	inhibition at 0.25 h, 10 µM (BSEP)
> 75%	< 100 nM	10 to 200 nM	> 75%	Cc1noc([C@H]2CCN(c3ccc(C4(C(=O)O)CC4)cc3)[C@@H](C)C2)c1NC(=O)O[C@H](C)c1ccccc1 (single isomer, unassigned) [Compound 10]	25 to 50%
> 75%	< 100 nM	10 to 200 nM	> 75%	Cc1noc([C@@H]2CCN(c3ccc(C4(C(=O)O)CC4)cc3)[C@H](C)C2)c1NC(=O)O[C@H](C)c1ccccc1 (single isomer, unassigned) [Compound 21]	–
> 75%	< 100 nM	10 to 200 nM	50 to 75%	Cc1noc(C2CCN(c3ccc(C4(C(=O)NS(C)(=O)=O)CC4)cc3)CC2)c1NC(=O)O[C@H](C)c1ccccc1 [Compound 12]	25 to 50%
25 to 50%	< 100 nM	< 10 nM	50 to 75%	Cc1ccccc1[C@@H](C)OC(=O)Nc1c(C)noc1C1CCN(c2ccc(C3(C(=O)NS(N)(=O)=O)CC3)cc2)CC1 [Compound 35]	–
25 to 50%	< 100 nM	< 10 nM	> 75%	CCc1ccccc1[C@@H](C)OC(=O)Nc1c(C)noc1C1CCN(c2ccc(C3(C(=O)O)CC3)cc2)CC1 [Compound 38, (R)-1-(4-(4-(4-(((1-(2-ethylphenyl)ethoxy)carbonyl)amino)-3-methylisoxazol-5-yl)piperidin-1-yl)phenyl)cyclopropane-1-carboxylic acid]	50 to 75%
50 to 75%	< 100 nM	< 10 nM	25 to 50%	Cc1noc(C2CCN(c3ccc(C4(c5cc(O)no5)CC4)cc3)CC2)c1NC(=O)O[C@H](C)c1ccccc1 [Compound 64]	75 to 100%
> 75%	< 100 nM	< 10 nM	> 75%	Cc1noc(C2CCN(c3ccc(C4(C(=O)NS(=O)(=O)C(C)(C)C(=O)O)CC4)cc3)CC2)c1NC(=O)O[C@H](C)c1ccccc1 [Compound 67, 2-methyl-2-[[1-[4-[4-[3-methyl-4-[[(1R)-1-phenylethoxy]carbonylamino]isoxazol-5-yl]-1-piperidyl]phenyl]cyclopropanecarbonyl]sulfamoyl]propanoic acid]	25 to 50%
> 75%	< 100 nM	< 10 nM	> 75%	Cc1noc(C2CCN(c3ccc(C4(C(=O)NS(=O)(=O)C(C)(C)CO)CC4)cc3)CC2)c1NC(=O)O[C@H](C)c1ccccc1 [Compound 70]	–
–	< 100 nM	< 10 nM	–	Cc1noc(C2CCN(c3ccc(C4(C(=O)NS(=O)(=O)CC(C)CO)CC4)cc3)CC2)c1NC(=O)O[C@H](C)c1ccccc1 (stereo partly drawn) [Compound 79, (1R)-1-phenylethyl N-{5-[1-(4-{1-[(3-hydroxy-2-methylpropanesulfonyl)carbamoyl]cyclopropyl}phenyl)piperidin-4-yl]-3-methyl-1,2-oxazol-4-yl}carbamate]	25 to 50%
> 75%	< 100 nM	< 10 nM	50 to 75%	Cc1noc(C2CCN(c3ccc(C4(C(=O)NS(=O)(=O)CC(=O)O)CC4)cc3)CC2)c1NC(=O)O[C@H](C)c1ccccc1 [Compound 80]	25 to 50%

— patent publication US20260356824A1, “COMPOUNDS FOR TREATING FIBROTIC DISEASES” (Meta-Immue Inc., priority 2023, published 2026)
